Measurements taken from patent EP0443498A1, “Isoindoline derivatives” (KYORIN PHARMACEUTICAL CO., LTD., priority 1990, dated 1991).
Counter-ions that a name gives are not always drawn. Like-named read-outs stand apart in the source and are kept apart here.

Key:
[1] = test system: S. aureus Smith; assay: Therapeutic effect on the systemic infection of mouse; assay type: in vivo, ICR mice; conditions: Staphylococcus aureus, po, 1 h, read-out: ED50 S. aureus
Experimental: (§1) The infectious bacteria were injected intraperitoneally using five ICR mice per group. one hour later, 5 doses of drugs were administered once orally, respectively, and, from a curve of survival rate of mouse as a function of dose of drug, a dose (EDso) by which 50% of animals escape the death to heal was determined.

[2] = test system: E. coli ML 4707; assay: as above; assay type: in vivo, ICR mice; conditions: Escherichia coli, ML4707, po, 1 h, read-out: ED50 E. coli
Experimental: as §1

[3] = test system: C. freundii IID976; assay: Antibacterial spectra (MIC), method of the Society of Chemotherapy in Japan; assay type: cell-based; conditions: Citrobacter freundii; C. freundii IID976, Gram -, 10^6 cells/ml; read-out: Minimum inhibitory concentration for growth
[4] = test system: A. anitratus IID876; assay: as above; assay type: cell-based; conditions: Acinetobacter calcoaceticus; A. anitratus IID876, Gram -, 10^6 cells/ml; read-out: Minimum inhibitory concentration for growth
[5] = test system: K. pneumoniae KY6445; assay: as above; assay type: cell-based; conditions: Klebsiella pneumoniae; K. pneumoniae KY6445, Gram -, 10^6 cells/ml; read-out: Minimum inhibitory concentration for growth
[6] = test system: B. thetaiotaomicron 0661; assay: as above; assay type: cell-based; conditions: Bacteroides thetaiotaomicron; B. thetaiotaomicron 0661, Gram -, 10^6 cells/ml; read-out: Minimum inhibitory concentration for growth
[7] = test system: S. pyogenes S-8; assay: as above; assay type: cell-based; conditions: Streptococcus pyogenes, S8; S. pyogenes S-8, Gram +, 10^6 cells/ml; read-out: Minimum inhibitory concentration for growth
[8] = test system: S. aureus 209P; assay: as above; assay type: cell-based; conditions: Staphylococcus aureus, Gram +, 10^6 cells/ml, read-out: Minimum inhibitory concentration for growth
[9] = test system: S. pneumoniae type III; assay: as above; assay type: cell-based; conditions: Streptococcus pneumoniae, Gram +, 10^6 cells/ml, read-out: Minimum inhibitory concentration for growth
[10] = test system: P. aeruginosa V-1; assay: as above; assay type: cell-based; conditions: Pseudomonas aeruginosa, V1; P. aeruginosa V-1, Gram -, 10^6 cells/ml; read-out: Minimum inhibitory concentration for growth
[11] = test system: P. mirabilis IID994; assay: as above; assay type: cell-based; conditions: Proteus mirabilis; P. mirabilis IID994, Gram -, 10^6 cells/ml; read-out: Minimum inhibitory concentration for growth
[12] = test system: S. epidermidis IID866; assay: as above; assay type: cell-based; conditions: Staphylococcus epidermidis; S. epidermidis IID866, Gram +, 10^6 cells/ml; read-out: Minimum inhibitory concentration for growth
[13] = test system: S. enteritidis IID604; assay: as above; assay type: cell-based; conditions: Salmonella enterica; S. enteritidis IID604, Gram -, 10^6 cells/ml; read-out: Minimum inhibitory concentration for growth
[14] = test system: S. aureus Smith; assay: as above; assay type: cell-based; conditions: Staphylococcus aureus, Gram +, 10^6 cells/ml, read-out: Minimum inhibitory concentration for growth
[15] = test system: E. cloacae IID977; assay: as above; assay type: cell-based; conditions: Enterobacter cloacae; E. cloacae IID977, Gram -, 10^6 cells/ml; read-out: Minimum inhibitory concentration for growth
[16] = test system: P. vulgaris IFO3167; assay: as above; assay type: cell-based; conditions: Proteus vulgaris; P. vulgaris IFO3167, Gram -, 10^6 cells/ml; read-out: Minimum inhibitory concentration for growth
[17] = test system: E. faecalis IID682; assay: as above; assay type: cell-based; conditions: Enterococcus faecalis; E. faecalis IID682, Gram +, 10^6 cells/ml; read-out: Minimum inhibitory concentration for growth
[18] = test system: S. pneumoniae S-4288; assay: as above; assay type: cell-based; conditions: Streptococcus pneumoniae, S4288; S. pneumoniae S-4288, Gram +, 10^6 cells/ml; read-out: Minimum inhibitory concentration for growth
[19] = test system: S. pneumoniae IID552; assay: as above; assay type: cell-based; conditions: Streptococcus pneumoniae; S. pneumoniae IID552, Gram +, 10^6 cells/ml; read-out: Minimum inhibitory concentration for growth
[20] = test system: C. perfringens KYA13123; assay: microbe, parasite or virus in culture; assay type: cell-based; conditions: Clostridium perfringens, KYA13123, read-out: Minimum inhibitory concentration for growth
[21] = test system: P. aeruginosa IFO12689; assay: Antibacterial spectra (MIC), method of the Society of Chemotherapy in Japan; assay type: cell-based; conditions: Pseudomonas aeruginosa; P. aeruginosa IFO12689, Gram -, 10^6 cells/ml; read-out: Minimum inhibitory concentration for growth
[22] = test system: E. coli NIHJ JC-2; assay: as above; assay type: cell-based; conditions: Escherichia coli, NIHJJC2; E. coli NIHJ JC-2, Gram -, 10^6 cells/ml; read-out: Minimum inhibitory concentration for growth
[23] = test system: S. sonnei IID969; assay: as above; assay type: cell-based; conditions: Shigella sonnei; S. sonnei IID969, Gram -, 10^6 cells/ml; read-out: Minimum inhibitory concentration for growth
Experimental: The antibacterial test was performed according to the method designated by Society of Chemotherapy in Japan.

[24] = test system: P. aeruginosa IID1210; assay: as above; assay type: cell-based; conditions: Pseudomonas aeruginosa; P. aeruginosa IID1210, Gram -, 10^6 cells/ml; read-out: Minimum inhibitory concentration for growth
[25] = test system: S. marcescens IID618; assay: as above; assay type: cell-based; conditions: Serratia marcescens; S. marcescens IID618, Gram -, 10^6 cells/ml; read-out: Minimum inhibitory concentration for growth
[26] = test system: M. morganii IID602; assay: as above; assay type: cell-based; conditions: Morganella morganii; M. morganii IID602, Gram -, 10^6 cells/ml; read-out: Minimum inhibitory concentration for growth
[27] = test system: P. maltophilia GIFU2491; assay: as above; assay type: cell-based; conditions: Stenotrophomonas maltophilia; P. maltophilia GIFU2491, Gram -, 10^6 cells/ml; read-out: Minimum inhibitory concentration for growth
[28] = S. aureus Smith, 4.8x10^6 CFU/mouse intraperitoneally, drug once orally one hour later, dose at which 50% of ICR mice survive
[29] = E. coli ML 4707, 8.8x10^6 CFU/mouse intraperitoneally, drug once orally one hour later, dose at which 50% of ICR mice survive

| Compound | MIC [3] | MIC [4] | MIC [5] | MIC [6] | MIC [7] | MIC [8] | MIC [9] | MIC [10] | MIC [11] | MIC [12] | MIC [13] | MIC [14] | ED50 [1, 28] | ED50 [2, 29] | MIC [15] | MIC [16] | MIC [17] | MIC [18] | MIC [19] | MIC [20] | further results |
| --- | --- | --- | --- | --- | --- | --- | --- | --- | --- | --- | --- | --- | --- | --- | --- | --- | --- | --- | --- | --- | --- |
| O=C(O)c1cn(C2CC2)c2cc(N3CCNCC3)c(F)cc2c1=O [CPFX, Ciprofloxacin, reference compound] |  |  |  |  |  |  |  |  |  |  |  |  |  |  |  |  |  |  |  |  | ED50 [1]: 20.3 mg/kg; ED50 [2]: 0.49 mg/kg |
| COc1c(N2C[C@@H](C)[C@H](N)C2)c(F)cc2c(=O)c(C(=O)O)cn(C3CC3)c12 [Example 33, 7-[3(S)-amino-4(R)-methyl-l-pyrrolidinyl]-1-cyclopropyl-6-fluoro-1,4-dihydro-8-methoxy-4-oxo-3-quinolinecarboxylic acid hydrochloride] | 0.05 µg/mL | 0.05 µg/mL | 0.025 µg/mL | 0.2 µg/mL | 0.05 µg/mL | 0.025 µg/mL | 0.05 µg/mL | 0.2 µg/mL | 0.05 µg/mL | 0.05 µg/mL | 0.05 µg/mL | 0.025 µg/mL | 1.21 mg/kg | 0.31 mg/kg | 0.05 µg/mL |  |  |  |  |  |  |
| COc1c(N2C[C@@H](N)[C@@H](C)C2)c(F)cc2c(=O)c(C(=O)O)cn(C3CC3)c12 [Example 34, 7-[3(S)amino-4(S)-methyl-1-pyrrolidinyl]-1-cyclopropyl-6-fluoro-1,4-dihydro-8-methoxy-4-oxo-3-quinolinecarboxyic acid hydrochloride] | 0.05 µg/mL | 0.05 µg/mL | 0.025 µg/mL |  |  | 0.025 µg/mL | 0.05 µg/mL | 0.2 µg/mL | 0.025 µg/mL | 0.05 µg/mL | 0.05 µg/mL | 0.025 µg/mL | 1.39 mg/kg | 0.26 mg/kg |  | 0.025 µg/mL | 0.2 µg/mL | 0.2 µg/mL | 0.2 µg/mL | 0.2 µg/mL |  |
| COc1c(N2C[C@@H](C)[C@@H](N)C2)c(F)cc2c(=O)c(C(=O)O)cn(C3CC3)c12.Cl [Example 35, 7-[3(R)-amino-4(R)-methyl-1-pyrrolidinyl]-1-cyclopropyl-6-fluoro-1,4-dihydro-8-methoxy-4-oxo-3-quinolinecarboxylic acid hydrochloride] |  | 0.05 µg/mL | 0.05 µg/mL |  | 0.2 µg/mL | 0.025 µg/mL |  |  | 0.05 µg/mL | 0.05 µg/mL |  | 0.025 µg/mL | 2 mg/kg | 1.11 mg/kg |  | 0.025 µg/mL | 0.2 µg/mL | 0.2 µg/mL | 0.2 µg/mL | 0.2 µg/mL | MIC [21]: 1.56 µg/mL; MIC [22]: 0.025 µg/mL; MIC [23]: 0.025 µg/mL; MIC [24]: 1.56 µg/mL |
| COc1c(N2C[C@H](C)[C@@H](N)C2)c(F)cc2c(=O)c(C(=O)O)cn(C3CC3)c12 [Example 36, 7-[3(R)-amino-4(S)-methyl-I-pyrrolidinyl]-I-cyclopropyl-6-fluoro-1-4-dihydro-8-methoxy-4-oxo-3-quinolinecarboxylic acid hydrochloride] |  |  | 0.05 µg/mL | 1.56 µg/mL | 0.2 µg/mL | 0.05 µg/mL | 0.2 µg/mL |  |  |  |  |  | 6.08 mg/kg | 2.04 mg/kg | 0.2 µg/mL | 0.025 µg/mL |  |  |  |  | MIC [25]: 0.2 µg/mL; MIC [21]: 1.56 µg/mL; MIC [26]: 0.2 µg/mL; MIC [22]: 0.025 µg/mL; MIC [23]: 0.025 µg/mL; MIC [27]: 0.2 µg/mL; MIC [24]: 1.56 µg/mL |
